Structures can show the parent of a compound that is named as a salt.
How the values were obtained:
Assay type in all cases: physicochemical
[1] = Bulk density, tapped density and Carr index; conditions: spray dried amorphous ipatasertib monohydrochloride powder; monohydrochloride
[2] = Solid state by X-ray powder diffraction; conditions: * indicates absence of crystalline API; monohydrochloride
Excerpt: Bragg's law describes the diffraction of crystalline material with the equation “2d·sin(theta)=n·lambda”, wherein “d” denotes perpendicular distance (in Angstroms) between pairs of adjacent planes in a crystal (“d-spacing”), “theta” denotes the Bragg angle, “lambda” denotes the wavelength and “n” is an integer. When Bragg's law is fulfilled, the reflected beams are in phase and interfere constructively so that Bragg diffraction peaks are observed in the X-ray diffraction pattern. At angles of incidence other than the Bragg angle, reflected beams are out of phase and destructive interference or cancellation occurs. […] The XRPD pattern of an amorphous material is further characterized by one or more amorphous halos.
The term “XRPD” denotes the analytical method of X-Ray Powder Diffraction. The repeatability of the angular values is in the range of 2Theta±0.2°, more particularly in the range of 2Theta±0.1°. The term “approximately” given in combination with an angular value denotes the variance which is in the range of 2Theta±0.2°, particularly in the range of 2Theta±0.1°. The relative XRPD peak intensity is dependent upon many factors such as structure factor, temperature factor, crystallinity, polarization factor, multiplicity, and Lorentz factor. Relative intensities may vary considerably from one measurement to another due to preferred orientation effects. According to USP 941 (US Pharmacopoeia, 37th Edition, General Chapter 941), relative intensities between two samples of the same material may vary considerably due to “preferred orientation” effects. Anisotropic materials adopting preferred orientation will lead to anisotropic distribution of properties such as modulus, strength, ductility, toughness, electrical conductivity, thermal expansion, etc., as described e.g. in Kocks U. F. et al. (Texture and Anisotropy: Preferred Orientations in Polycrystals and Their Effect on Materials Properties, Cambridge University Press, 2000). In XRPD but also Raman spectroscopy, preferred orientations cause a change in the intensity distribution. Preferred orientation effects are particularly pronounced with crystalline APIs of relatively large particle size.

[3] = Particle size distribution (d10, d50, d90) by laser diffraction; conditions: spray dried amorphous ipatasertib monohydrochloride powder
Excerpt: FIG. 6 illustrates particle size distribution of the material of Example 6C (Batch HQ00003) spray dried with two-feed nozzle as obtained by laser diffraction A bimodal particle size distribution is obvious. FIG. 9 illustrates particle size distribution of spray dried material with rotary wheel nozzle, i.e. of the material of batch BS1506SA03 of Example 13 (Table 20) obtained using a Malvern Mastersizer 2000 equipped with Hydro 2000S wet sample dispersion unit (Malvern Instruments Ltd, Malvern/UK). A monomodal particle size distribution is obvious. The terms “d50 value” (sometimes also referred to as “d(0.5)-value”) and “mass-median diameter” (or MMD) can be used interchangeably and denote the average particle size by mass, i.e. the average equivalent diameter of a particle, which is defined as the diameter where 50% (w) of the particles of the ensemble have a larger equivalent spherical diameter, and the other 50% (w) have a smaller equivalent spherical diameter. In analogy, the term “d10-value” denotes the particle diameter wherein 10% (w) of the particles of the ensemble have a smaller equivalent spherical diameter. In analogy, the term “d90-value” denotes the particle diameter wherein 90% (w) of the particles of the ensemble have a smaller equivalent spherical diameter.

Structure (SMILES) | Bulk density [1] | Tapped density [1] | Solid state / Polymorphy (X-Ray, XRPD) [2] | Particle size d10 [3] | Particle size d50 [3] | Particle size d90 [3]
CC(C)NC[C@@H](C(=O)N1CCN(c2ncnc3c2[C@H](C)C[C@H]3O)CC1)c1ccc(Cl)cc1 [Composition 140210413, ipatasertib monohydrochloride] | 0.45 gcm^−3 | 0.59 gcm^−3 | amorphous* | 10 μm | 28 μm | 56 μm
CC(C)NC[C@@H](C(=O)N1CCN(c2ncnc3c2[C@H](C)C[C@H]3O)CC1)c1ccc(Cl)cc1 [Composition 130710450, ipatasertib monohydrochloride] | 0.42 gcm^−3 | 0.60 gcm^−3 | Amorphous* | 14 μm | 40 μm | 79 μm
CC(C)NC[C@@H](C(=O)N1CCN(c2ncnc3c2[C@H](C)C[C@H]3O)CC1)c1ccc(Cl)cc1 [Composition 140110411, ipatasertib monohydrochloride] | 0.37 gcm^−3 | 0.51 gcm^−3 | amorphous* | 9.2 μm | 27 μm | 58 μm
CC(C)NC[C@@H](C(=O)N1CCN(c2ncnc3c2[C@H](C)C[C@H]3O)CC1)c1ccc(Cl)cc1 [Composition 140110403, ipatasertib monohydrochloride] | 0.37 gcm^−3 | 0.52 gcm^−3 | amorphous* | 9.4 μm | 27 μm | 61 μm
CC(C)NC[C@@H](C(=O)N1CCN(c2ncnc3c2[C@H](C)C[C@H]3O)CC1)c1ccc(Cl)cc1 [Composition 140210414, ipatasertib monohydrochloride] | 0.48 gcm^−3 | 0.57 gcm^−3 | amorphous* | 18 μm | 53 μm | 109 μm
CC(C)NC[C@@H](C(=O)N1CCN(c2ncnc3c2[C@H](C)C[C@H]3O)CC1)c1ccc(Cl)cc1 [Composition 141210425, ipatasertib monohydrochloride] | 0.39 gcm^−3 | 0.54 gcm^−3 | amorph.* | 11 μm | 39 μm | 80 μm
CC(C)NC[C@@H](C(=O)N1CCN(c2ncnc3c2[C@H](C)C[C@H]3O)CC1)c1ccc(Cl)cc1 [Composition 140110404, ipatasertib monohydrochloride] | 0.49 gcm^−3 | 0.63 gcm^−3 | amorphous* | 12.5 μm | 47 μm | 108 μm
CC(C)NC[C@@H](C(=O)N1CCN(c2ncnc3c2[C@H](C)C[C@H]3O)CC1)c1ccc(Cl)cc1 [Composition 140110402, ipatasertib monohydrochloride] | 0.45 gcm^−3 | 0.60 gcm^−3 | amorphous* | 7 μm | 20 μm | 46 μm
CC(C)NC[C@@H](C(=O)N1CCN(c2ncnc3c2[C@H](C)C[C@H]3O)CC1)c1ccc(Cl)cc1 [Composition 140110406, ipatasertib monohydrochloride] | 0.41 gcm^−3 | 0.54 gcm^−3 | amorphous* | 10.2 μm | 26 μm | 53 μm
CC(C)NC[C@@H](C(=O)N1CCN(c2ncnc3c2[C@H](C)C[C@H]3O)CC1)c1ccc(Cl)cc1 [Composition 141210421, ipatasertib monohydrochloride] | 0.38 gcm^−3 | 0.55 gcm^−3 | amorph.* | 10 μm | 28 μm | 56 μm
CC(C)NC[C@@H](C(=O)N1CCN(c2ncnc3c2[C@H](C)C[C@H]3O)CC1)c1ccc(Cl)cc1 [Composition 141210424, ipatasertib monohydrochloride] | 0.37 gcm^−3 | 0.54 gcm^−3 | amorph.* | 9.5 μm | 27 μm | 54 μm
CC(C)NC[C@@H](C(=O)N1CCN(c2ncnc3c2[C@H](C)C[C@H]3O)CC1)c1ccc(Cl)cc1 [Composition 130810453, ipatasertib monohydrochloride] | 0.30 gcm^−3 | 0.45 gcm^−3 | Amorphous* | 6.6 μm | 20 μm | 58 μm
CC(C)NC[C@@H](C(=O)N1CCN(c2ncnc3c2[C@H](C)C[C@H]3O)CC1)c1ccc(Cl)cc1 [Composition 140110405, ipatasertib monohydrochloride] | 0.28 gcm^−3 | 0.40 gcm^−3 | amorphous* | 9.3 μm | 26 μm | 57 μm
CC(C)NC[C@@H](C(=O)N1CCN(c2ncnc3c2[C@H](C)C[C@H]3O)CC1)c1ccc(Cl)cc1 [Composition 140110401, ipatasertib monohydrochloride] | 0.47 gcm^−3 | 0.61 gcm^−3 | amorphous* | 11.4 μm | 31 μm | 64 μm
CC(C)NC[C@@H](C(=O)N1CCN(c2ncnc3c2[C@H](C)C[C@H]3O)CC1)c1ccc(Cl)cc1 [Composition 140110409, ipatasertib monohydrochloride] | 0.27 gcm^−3 | 0.39 gcm^−3 | amorphous* | 11.3 μm | 35 μm | 79 μm
CC(C)NC[C@@H](C(=O)N1CCN(c2ncnc3c2[C@H](C)C[C@H]3O)CC1)c1ccc(Cl)cc1 [Composition 130710452, ipatasertib monohydrochloride] | 0.32 gcm^−3 | 0.47 gcm^−3 | Amorphous* | 8.4 μm | 21 μm | 42 μm
CC(C)NC[C@@H](C(=O)N1CCN(c2ncnc3c2[C@H](C)C[C@H]3O)CC1)c1ccc(Cl)cc1 [Composition 130810454, ipatasertib monohydrochloride] | 0.47 gcm^−3 | 0.61 gcm^−3 | Amorphous* | 12 μm | 36 μm | 72 μm
CC(C)NC[C@@H](C(=O)N1CCN(c2ncnc3c2[C@H](C)C[C@H]3O)CC1)c1ccc(Cl)cc1 [Composition 140110407, ipatasertib monohydrochloride] | 0.29 gcm^−3 | 0.43 gcm^−3 | amorphous* | 7.1 μm | 16 μm | 28 μm
CC(C)NC[C@@H](C(=O)N1CCN(c2ncnc3c2[C@H](C)C[C@H]3O)CC1)c1ccc(Cl)cc1 [Composition 140110410, ipatasertib monohydrochloride] | 0.18 gcm^−3 | 0.30 gcm^−3 | amorphous* | 8.1 μm | 23 μm | 50 μm

Reference: patent US12440492B2, “Pharmaceutical compositions comprising AKT protein kinase inhibitors” (Genentech, Inc., priority 2016, dated 2025)
